“And” between values parts separate entries of the source, which are not always exact repeats. Identical values can stand only once.
System: WM3248 melanoma cells, 486 antibodies
Test: Reverse phase protein arrays (RPPA)
Assay type: cell-based, Human
Details: 20 uM
From the text: Pellets were snap frozen in liquid nitrogen and shipped to MD Anderson Cancer Center core RPPA facility for RPPA analysis (Table S5). Three biological replicates for each sample were generated.
Nomenclatures on the RPPA heatmaps: name_of_antibody.species_of_antibody.status_of_antibody. V - antibody validated; C - validation of antibody in progress; Q - antibody nonspecific; E – under evaluation; antibodies raised in M - mouse, G - goat, R - rabbit, or T - rat.

SMILES: CN(C)c1cccc(Nc2cc(-c3ccccc3)nc(C3CCNCC3)n2)c1 [ARN22089, N1,N1-dimethyl-N3-(6-phenyl-2-(piperidin-4-yl)pyrimidin-4-yl)benzene-1,3-diamine]
- RPPA SGK1.R.V Average (average of 3): 0.842
- RPPA SGK3.R.V Average (average of 3): 1.023
- RPPA SHP2.R.V Average (average of 3): 1.005
- RPPA SHP.2_pY542.R.C Average (average of 3): 1.076
- RPPA SIRPαR.V Average (average of 3): 0.981
- RPPA SLC1A5.R.C Average (average of 3): 1.080
- RPPA SOD1.M.V Average (average of 3): 0.967
- RPPA SOD2.R.V Average (average of 3): 1.111
- RPPA SOX7.R.V Average (average of 3): 1.078
- RPPA STING.R.V Average (average of 3): 0.964
- RPPA Shc_pY317.R.C Average (average of 3): 1.012
- RPPA Slfn11.G.C Average (average of 3): 0.995
- RPPA Smac.M.Q Average (average of 3): 0.977
- RPPA Smad1.R.V Average (average of 3): 1.081
- RPPA Smad3.R.V Average (average of 3): 1.101
- RPPA Smad4.R.V Average (average of 3): 1.112
- RPPA Snail.M.Q Average (average of 3): 0.754
- RPPA Sox2.R.V Average (average of 3): 1.223
- RPPA Sox17.R.V Average (average of 3): 0.982
- RPPA Src.M.V Average (average of 3): 0.962
- RPPA Src_pY416.R.V Average (average of 3): 1.034
- RPPA Src_pY527.R.V Average (average of 3): 1.187
- RPPA Stat3.R.C Average (average of 3): 0.979
- RPPA Stat3_pY705.R.C Average (average of 3): 1.281
- RPPA Stat5a.R.V Average (average of 3): 1.185
- RPPA Stathmin.1.R.V Average (average of 3): 0.924
- RPPA Syk.M.V Average (average of 3): 0.975
- RPPA TAZ.R.V Average (average of 3): 0.719
- RPPA TEAD.R.C Average (average of 3): 0.998
- RPPA TFAM.R.V Average (average of 3): 0.978
- RPPA TFRC.R.V Average (average of 3): 0.934
- RPPA TRAP1.M.V Average (average of 3): 0.944
- RPPA TRIM24.R.C Average (average of 3): 1.085
- RPPA TRIM25.R.C Average (average of 3): 0.893
- RPPA TRIP13.R.V Average (average of 3): 0.978
- RPPA Transglutaminase.M.V Average (average of 3): 1.323
- RPPA signal, antibody TSC1.R.C, Average (average of 3 replicates): 0.906
- RPPA signal, antibody TTF1.R.V, Average (average of 3 replicates): 1.016
- RPPA signal, antibody TUFM.R.V, Average (average of 3 replicates): 1.103
- RPPA signal, antibody Tuberin_pT1462.R.V, Average (average of 3 replicates): 1.116
- RPPA signal, antibody Twist.M.C, Average (average of 3 replicates): 0.954
- RPPA signal, antibody Tyro3.R.V, Average (average of 3 replicates): 1.154
- RPPA signal, antibody U.Histone.H2B.R.C, Average (average of 3 replicates): 2.471
- RPPA signal, antibody UBAC1.R.V, Average (average of 3 replicates): 1.016
- RPPA signal, antibody UGT1A.M.V, Average (average of 3 replicates): 1.000
- RPPA signal, antibody ULK1_pS757.R.C, Average (average of 3 replicates): 0.908
- RPPA signal, antibody UQCRC2.M.C, Average (average of 3 replicates): 0.887
- RPPA signal, antibody VASP.R.V, Average (average of 3 replicates): 0.952
- RPPA signal, antibody VAV1.R.C, Average (average of 3 replicates): 1.024
- RPPA signal, antibody VEGFR.2.R.V, Average (average of 3 replicates): 0.928
- RPPA signal, antibody VEGFR.2_pY1175.R.C, Average (average of 3 replicates): 1.063
- RPPA signal, antibody VHL.EPPK1.M.C, Average (average of 3 replicates): 1.020
- RPPA signal, antibody VHL.R.C, Average (average of 3 replicates): 0.956
- RPPA signal, antibody Vinculin.M.V, Average (average of 3 replicates): 0.913
- RPPA signal, antibody WIPI2.R.C, Average (average of 3 replicates): 1.142
- RPPA signal, antibody WTAP.R.V, Average (average of 3 replicates): 1.197
- RPPA signal, antibody Wee1.R.C, Average (average of 3 replicates): 1.011
- RPPA signal, antibody XBP.1.G.C, Average (average of 3 replicates): 0.972
- RPPA signal, antibody XIAP.R.C, Average (average of 3 replicates): 0.993
- RPPA signal, antibody XPA.M.V, Average (average of 3 replicates): 0.982
- RPPA signal, antibody XPF.R.C, Average (average of 3 replicates): 0.952
- RPPA signal, antibody XRCC1.R.C, Average (average of 3 replicates): 1.024
- RPPA signal, antibody YAP.R.C, Average (average of 3 replicates): 0.993
- RPPA signal, antibody YB1_pS102.R.V, Average (average of 3 replicates): 1.015
- RPPA signal, antibody YES1.R.V, Average (average of 3 replicates): 0.974
- RPPA signal, antibody YTHDF2.R.V, Average (average of 3 replicates): 1.022
- RPPA signal, antibody YTHDF3.R.C, Average (average of 3 replicates): 0.957
- RPPA signal, antibody ZAP.70.R.V, Average (average of 3 replicates): 0.929
- RPPA signal, antibody ZEB1.R.V, Average (average of 3 replicates): 1.026
- RPPA signal, antibody TSC1.R.C (individual replicates): 0.941 and 0.818 and 0.960
- RPPA signal, antibody TTF1.R.V (individual replicates): 1.015 and 0.923 and 1.110
- RPPA signal, antibody TUFM.R.V (individual replicates): 1.758 and 0.731 and 0.819
- RPPA signal, antibody Tuberin.R.V (individual replicates): 0.781 and 1.344 and 1.402
- RPPA signal, antibody Tuberin_pT1462.R.V (individual replicates): 0.961 and 1.362 and 1.023
- RPPA signal, antibody Twist.M.C (individual replicates): 0.937 and 0.987
- RPPA signal, antibody Tyro3.R.V (individual replicates): 1.400 and 1.084 and 0.979
- RPPA signal, antibody U.Histone.H2B.R.C (individual replicates): 5.570 and 0.775
- RPPA signal, antibody UBAC1.R.V (individual replicates): 1.007 and 0.954
- RPPA signal, antibody UBQLN4.M.C (individual replicates): 1.008 and 0.906 and 0.933
- RPPA signal, antibody UGT1A.M.V (individual replicates): 0.958 and 1.050 and 0.991
- RPPA signal, antibody ULK1_pS757.R.C (individual replicates): 0.848 and 1.011

— article PMC9127750, “Structure-based design of CDC42 effector interaction inhibitors for the treatment of cancer” (Cell reports, 2022)
